Data on 34 molecules can be found in patent publication US7595401B2, “Therapeutic compounds and their use in cancer” (Myriad Pharmaceuticals, Inc., priority 2006, dated 2009).

SMILES strings stand for the structures.

In the first assay the test system is purified human Hsp90. Nature of the assay: Binding Assay: fluorescence polarization with BODIPY-labeled geldanamycin. The note with it: 5 μM compound, BODIPY-GM 10 nM, Hsp90 30 nM. A digest of the protocol: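 Fluorescence polarization competition with BODIPY-geldanamycin (10 nM final) and human Hsp90 (30 nM final) in HEPES-KOH pH 7.3 buffer with molybdate, NP-40, DTT; 2% DMSO, overnight at room temperature. Read 485/530 nm; percent inhibition from mP normalized to DMSO controls, fluorescent-compound points excluded.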
In the case of `COc1ccc(OC)c(Sc2nc3c(N)ncn(CCc4ccccc4C(F)(F)F)c-3n2)c1` [Example 184, 8-(2,5-dimethoxy-phenylsulfanyl)-3-[2-(2-trifluoromethyl-phenyl)-ethyl]-3H-purin-6-ylamine], the “% Inhibition at 5 μM Compound Concentration” value (shortened to “% Inhibition”) worked out at 0%.

For `Cc1ccc(C)c(CCn2cnc(N)c3nc(Sc4cc5c(cc4Br)OCO5)nc2-3)c1` [Example 125, 8-(6-bromo-benzo[1,3]dioxol-5-ylsulfanyl)-3-[2-(2,5-dimethyl-phenyl)-ethyl]-3H-purin-6-ylamine], the “% Inhibition” value was found to be 12%.

As for `Nc1ncn(CCc2ccccc2)c2nc(Cc3cc4c(cc3Br)OCO4)nc1-2` [Example 210, 8-(6-Bromo-benzo[1,3]dioxol-5-ylmethyl)-3-phenethyl-3H-purin-6-ylamine], the “% Inhibition” value was 8%.

Consider `Nc1ncn(CCc2cccc(F)c2)c2nc(Sc3cc4c(cc3Br)OCO4)nc1-2` [Example 110, 8-(6-bromo-benzo[1,3]dioxol-5-ylsulfanyl)-3-[2-(3-fluoro-phenyl)-ethyl]-3H-purin-6-ylamine], for which the “% Inhibition” value was 16%.

On to `Nc1ncn(CCc2c(F)cccc2Cl)c2nc(Sc3cc4c(cc3Br)OCO4)nc1-2` [Example 131, 8-(6-bromo-benzo[1,3]dioxol-5-ylsulfanyl)-3-[2-(2-chloro-6-fluoro-phenyl)-ethyl]-3H-purin-6-ylamine], for which the “% Inhibition” value is 18%.

Consider `CC(C)n1nnnc1N1CCC(CCn2cnc(N)c3nc(Sc4cc5c(cc4Br)OCO5)nc2-3)CC1` [Example 613, 8-[(6-Bromo-1,3-benzodioxol-5-yl)thio]-3-{2-[1-(1-isopropyl-1 H-tetrazol-5-yl)piperidin-4-yl]ethyl}-3 H-purin-6-amine], for which the “% Inhibition” value turned out to be 15.00%.

Turning to `CC(C)(C)OC(=O)NC(CCn1cnc(N)c2nc(Sc3cc4c(cc3Br)OCO4)nc1-2)C1CCC1` (stereo not shown) [Example 673, tert-Butyl(3-{6-amino-8-[(6-bromo-1,3-benzodioxol-5-yl)thio]-3H-purin-3-yl}-1-cyclobutylpropyl)carbamate], the “% Inhibition” value came to 0%.

Turning to `COc1ccc(CCn2cnc(N)c3nc(Sc4cc5c(cc4Br)OCO5)nc2-3)cc1OC` [Example 297, 8-[(6-Bromo-1,3-benzodioxol-5-yl)thio]-3-[2-(3,4-dimethoxyphenyl)ethyl]-3H-purin-6-amine], the “% Inhibition” value turned out to be 8.0%.

As to `COc1ccc(OC)c(Sc2nc3c(N)ncn(CCC4CCCCC4)c-3n2)c1` [Example 170, 3-(2-cyclohexyl-ethyl)-8-(2,5-dimethoxy-phenylsulfanyl)-3H-purin-6-ylamine], the “% Inhibition” value is recorded as 3%.

As to `CC(C)(C)OC(=O)N1CCCC1CCn1cnc(N)c2nc(Sc3cc4c(cc3Br)OCO4)nc1-2` (stereo not shown) [Example 412, tert-Butyl 2-(2-{6-amino-8-[(6-bromo-1,3-benzodioxol-5-yl)thio]-3H-purin-3-yl}ethyl)pyrrolidine-1-carboxylate], the “% Inhibition” value was 0%.

`Nc1ncn(CCc2ccccc2F)c2nc(Sc3cc4c(cc3Br)OCO4)nc1-2` [Example 148, 8-(6-bromo-benzo[1,3]dioxol-5-ylsulfanyl)-3-[2-(2-fluoro-phenyl)-ethyl]-3H-purin-6-ylamine]: the “% Inhibition” value came to 35%.

Still in this assay, the particulars now being: BODIPY-GM 10 nM, Hsp90 30 nM.
`Nc1ncnc2c1nc(Sc1cc3c(cc1Br)OCO3)n2CCC1CC2CCC(C1)O2` (stereo not shown) [Example 605] returned an IC50 of 0.056 µM.

Consider `Nc1ncnc2c1nc(Sc1cc3c(cc1Br)OCO3)n2CCC1CCCN(CC(F)(F)F)C1` (stereo not shown) [Example 577, 8-[(6-Bromo-1,3-benzodioxol-5-yl)thio]-9-{2-[1-(2,2,2-trifluoroethyl)piperidin-3-yl]ethyl}-9 H-purin-6-amine], for which the IC50 stood at 0.14 µM.

With `Nc1ncnc2c1nc(Sc1cc3c(cc1Br)OCO3)n2CCC1CCCN(S(=O)(=O)C(F)(F)F)C1` (stereo not shown) [Example 402, 8-[(6-Bromo-1,3-benzodioxol-5-yl)thio]-9-(2-{1-[(trifluoromethyl)sulfonyl]piperidin 3-yl}ethyl)-9H-purin-6-amine], the IC50 was 0.59 µM.

Molecule `Nc1ncnc2c1nc(Sc1ccc3ncoc3c1)n2CCc1ccccc1` [Example 283, 8-(1,3-Benzoxazol-6-ylthio)-9-(2-phenylethyl)-9H-purin-6-amine] yielded an IC50 of 12 µM.

On to `Nc1ncnc2c1nc(Sc1nc3cccc(Cl)c3s1)n2CCC1CCN(C=O)CC1` [Example 661, 4-(2-{6-Amino-8-[(7-chloro-1,3-benzothiazol-2-yl)thio]-9H-purin-9yl}-ethyl)-piperidin-1-carbaldehyde], for which the IC50 was 0.06 µM.

For the molecule `CO[C@@H](C)C(=O)N1CCC(CCn2c(Sc3cc4c(cc3Br)OCO4)nc3c(N)ncnc32)CC1` [Example 724, 8-[(6-Bromo-1,3-benzodioxol-5-yl)thio]-9-(2-{1-[(2S)-2-methoxypropanoyl]piperidin-4-yl}ethyl)-9H-purin-6-amine], the IC50 worked out at 0.105 µM.

As for `COc1cc(Sc2nc3c(N)ncnc3n2CCc2c(F)cccc2Cl)c(OC)cc1Cl` [Example 256, 8-[(4-Chloro-2,5-dimethoxyphenyl)thio]-9-[2-(2-chloro-6-fluorophenyl)ethyl]-9H-purin-6-amine], the IC50 was determined as 0.47 µM.

In turn, `Nc1ncnc2c1nc(Sc1cccc(OC(F)F)c1)n2CCc1c(F)cccc1Cl` [Example 254, 9-[2-(2-Chloro-6-fluorophenyl)ethyl]-8-{[3-(difluoromethoxy)phenyl]thio}-9H-purin-6-amine] had an IC50 above 8 µM.

For the molecule `CN(C)CC(=O)N1CCC(CCn2c(Sc3cc4c(cc3Br)OCO4)nc3c(N)ncnc32)CC1` [Example 707, 8-[(6-Bromo-1,3-benzodioxol-5-yl)thio]-9-(2-{1-[(dimethylamino)acetyl]piperidin-4-yl}ethyl)-9H-purin-6-amine], the IC50 stood at 0.07 µM.

With `COc1ccc(OC)c(Sc2nc3c(N)ncnc3n2CCC(NC(=O)OC(C)(C)C)C2CCSCC2)c1` (stereo not shown) [Example 668, tert-Butyl[3-{6-amino-8-[(2,5-dimethoxyphenyl)thio]-9H-purin-9-yl}-1-(tetrahydro-2H-thiopyran-4-yl)propyl]carbamate], the IC50 was found to be 4.8 µM.

Take `CC(C)(C)OC(=O)N1CCC[C@H](CCn2c(Sc3cc4c(cc3Br)OCO4)nc3c(N)ncnc32)C1` [Example 392, tert-Butyl (3R)-3-(2-{6-amino-8-[(6-bromo-1,3-benzodioxol-5-yl)thio]-9H-purin-9-yl}ethyl)piperidine-1-carboxylate]: the IC50 was determined as 2.9 µM.

`CC12CCC(CC(CCn3c(Sc4cc5c(cc4Br)OCO5)nc4c(N)ncnc43)C1)O2` (stereo not shown) [Example 607, 8-[(6-Bromo-1,3-benzodioxol-5-yl)thio]-9-{2-[1-methyl-8-oxabicyclo[3.2.1]oct-3-yl]ethyl}-9 H-purin-6-amine] yielded an IC50 of 0.062 µM.

Consider `COc1cc(Sc2nc3c(N)ncnc3n2CCc2ccccc2)cc(OC)c1OC` [Example 45, 9-Phenethyl-8-(3,4,5-trimethoxy-phensulfanyl)-9H-purin-6-ylamine], for which the IC50 worked out at 8.1 µM.

Consider `CC(C)[C@H](N)C(=O)N1CCCC(CCn2c(Sc3cc4c(cc3Br)OCO4)nc3c(N)ncnc32)C1` (stereo partly drawn) [Example 745, 9-(2-{1-[(2S)-2-Amino-3-methylbutanoyl]piperidin-3-yl}ethyl)-8-[(6-bromo-1,3-benzodioxol-5-yl)thio]-9H-purin-6-amine], for which the IC50 was 0.123 µM.

Molecule `CC(C)N1CCCCC1CCn1c(Sc2cc3c(cc2Br)OCO3)nc2c(N)ncnc21` (stereo not shown) [Example 445, 8-[(6-Bromo-1,3-benzodioxol-5-yl)thio]-9-[2-(1-isopropylpiperidin-2-yl)ethyl]-9H-purin-6-amine] displayed an IC50 of 0.305 µM.

In the case of `COc1ccc(OC)c(Sc2nc3c(N)ncnc3n2CCC2CC(C)(C)NC(C)(C)C2)c1` [Example 361, 8-[(2,5-Dimethoxyphenyl)thio]-9-[2-(2,2,6,6-tetramethylpiperidin-4-yl)ethyl]-9H-purin-6-amine], the half-inhibitory concentration (IC50) is 2.9 µM.

`Nc1ncnc2c1nc(Sc1cc3c(cc1Br)OCO3)n2CCC1CCN(C(=O)[C@H]2C[C@@H]2F)CC1` [Example 522, 8-[(6-Bromo-1,3-benzodioxol-5-yl)thio]-9-[2-(1-{[(2S)-2-fluorocyclopropyl]carbonyl}piperidin-4-yl)ethyl]-9 H-purin-6-amine]: the IC50 was 0.053 µM.

For the molecule `Nc1ncnc2c1nc(Sc1cccc(OC(F)F)c1)n2CCc1c(Cl)cccc1Cl` [Example 253, 9-[2-(2,6-Dichlorophenyl)ethyl]-8-{[3-(difluoromethoxy)phenyl]thio}-9H-purin-6-amine], the IC50 was above 8 µM.

Molecule `COCc1cc2c(cc1Sc1nc3c(N)ncnc3n1CCC1CCN(C=O)CC1)OCO2` [Example 624, 4-[2-(6-Amino-8-{[6-(methoxymethyl)-1,3-benzodioxol-5-yl]thio}-9 H-purin-9-yl)ethyl]piperidine-1-carbaldehyde] returned an IC50 of 0.58 µM.

In the case of `Nc1ncnc2c1nc(Sc1cc3c(cc1Br)OCO3)n2CCC(N)C1CCSCC1` (stereo not shown) [Example 689, 9-[3-Amino-3-(tetrahydro-2H-thiopyran-4-yl)propyl]-8-[(6-bromo-1,3-benzodioxol-5-yl)thio]-9H-purin-6-amine], the IC50 came to 0.12 µM.

Take `CC(C)(C)OC(=O)NC(CCn1c(Sc2cc3c(cc2Br)OCO3)nc2c(N)ncnc21)C1CCCC1` (stereo not shown) [Example 681, {3-[6-Amino-8-(6-bromo-benzo[1,3]dioxol-5-ylsulfanyl)-purin-9-yl]-1-cyclopentyl-propyl}-carbamic acid tert-butyl ester]: the IC50 was 1 µM.

As to `COc1ccc(OC)c(Sc2nc3c(N)ncnc3n2CCc2ccncc2)c1` [Example 134, 8-(2,5-Dimethoxy-phenylsulfanyl)-9-(2-pyridin-4-yl-ethyl)-9H-purin-6-ylamine], the IC50 is above 3 µM.

In the case of `COc1ccc(OC)c(Sc2nc3c(N)ncnc3n2CCN2CCNC(=O)C2)c1` [Example 634, 4-(2-{6-Amino-8-[(2,5-dimethoxyphenyl)thio]-9 H-purin-9-yl}ethyl)piperazin-2-one], the IC50 worked out at 8.1 µM.
